Measurements as given in publication PMC10673511, “Design, Synthesis and Bioactivity Evaluation of Heterocycle-Containing Mono- and Bisphosphonic Acid Compounds” (Molecules, 2023).
In brackets after ≈: the same amount, converted by molar mass. Read-outs that look alike come from different tables or passages of the source.

Experiments:
[1] = target: recombinant E. coli DXR (EcDXR) (Escherichia coli, UniProt P45568); assay: biochemical; settings: read-out: InR (%) on DXR enzyme
[2] = system: Brassica napus L.; assay: Pre-emergence herbicidal inhibition assay, Petri dish test, BN; format: in vivo; settings: for EC50: Brassica napus, 168 h; for Relative activity ratio (BN root) / Relative activity ratio (BN stalk): relative to FOS
Experimental: (§1) The pre-emergence activity of the compounds against monocot Echinochloa crus-galli (EC) and dicot Brassica napus L. (BN) was evaluated using the standard Petri dish test. The compounds were dissolved in DMF, emulsified with Tween-80 and diluted with water to form stock solutions, each of which was further diluted to a gradient of 100, 50, 25, 10 and 1 mg/L for test. The test solutions were added to Petri dishes lined with a filter paper, on which 10 seeds of EC and BN were placed. After cultured in an intelligent climate chamber with a humidity of 65% at 26 °C for 7 days, the corresponding EC50 values were calculated.

[3] = system: Echinochloa crus-galli; assay: Pre-emergence herbicidal inhibition assay, Petri dish test, EC; format: in vivo; settings: for EC50: Echinochloa crus-galli, 168 h; for Relative activity ratio (EC root) / Relative activity ratio (EC stalk): relative to FOS
Experimental: as §1

[4] = system: Arabidopsis thaliana; assay: Arabidopsis growth inhibition assay (24-well plates, green channel pixel value); settings: Arabidopsis thaliana, 240 h; for EC50: read-out: EC50 against Arabidopsis growth; for pest or weed control at 100 µg/mL: read-out: InR (%) against Arabidopsis
[5] = root, 7 days, read-out: EC50 BN Root
[6] = stalk, 7 days, read-out: EC50 BN Stalk
[7] = root, 7 days, read-out: EC50 EC Root
[8] = stalk, 7 days, read-out: EC50 EC Stalk

recombinant E. coli DXR (EcDXR), sequence (P45568 whole entry): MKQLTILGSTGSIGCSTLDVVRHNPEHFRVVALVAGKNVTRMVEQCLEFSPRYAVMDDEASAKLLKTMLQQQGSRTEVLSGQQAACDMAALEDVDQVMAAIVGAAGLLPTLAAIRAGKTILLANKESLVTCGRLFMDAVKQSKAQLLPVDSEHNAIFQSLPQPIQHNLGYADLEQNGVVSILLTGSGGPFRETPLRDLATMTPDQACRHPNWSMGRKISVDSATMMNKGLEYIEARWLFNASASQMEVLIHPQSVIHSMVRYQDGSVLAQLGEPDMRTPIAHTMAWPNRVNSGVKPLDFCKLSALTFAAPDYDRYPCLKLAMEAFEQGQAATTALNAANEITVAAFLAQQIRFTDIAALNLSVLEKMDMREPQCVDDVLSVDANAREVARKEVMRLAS

SMILES	inhibition at 100 µM [1]	EC50 [2, 5]	EC50 [2, 6]	Relative activity ratio (BN root) [2]	Relative activity ratio (BN stalk) [2]	EC50 [3, 7]	EC50 [3, 8]	Relative activity ratio (EC root) [3]	Relative activity ratio (EC stalk) [3]	melting point	EC50 [4]	pest or weed control at 100 µg/mL [4]	EC50 ([2]; read-out: EC50 BN Root)	EC50 ([2]; read-out: EC50 BN Stalk)	EC50 ([3]; read-out: EC50 EC Root)	EC50 ([3]; read-out: EC50 EC Stalk)
Cc1onc(C(F)(F)F)c1CC(P(=O)(O)O)P(=O)(O)O [Compound 13i]	30.3%	40.5 µg/mL (≈ 119 µM)	33.5 µg/mL (≈ 98.8 µM)	0.9 fold	1.0 fold	32.1 µg/mL (≈ 94.7 µM)	34.6 µg/mL (≈ 102 µM)	1.3 fold	1.1 fold	240 to 241 °C	40.7 ± 2.9 µg/mL (≈ 120 µM)	90.1%	–	–	–	–
Cc1n[nH]c(C(F)(F)F)c1CC(P(=O)(O)O)P(=O)(O)O [Compound 12i]	27.1%	36.6 µg/mL (≈ 108 µM)	21.7 µg/mL (≈ 64.2 µM)	0.9 fold	1.5 fold	53.1 µg/mL (≈ 157 µM)	47.7 µg/mL (≈ 141 µM)	0.8 fold	0.8 fold	> 250 °C	88.3 ± 4.3 µg/mL (≈ 261 µM)	55.8%	–	–	–	–
O=P(O)(O)C(Cc1c(C(F)(F)F)n[nH]c1O)P(=O)(O)O [Compound 12e]	22.8%	> 100 µg/mL	45.7 µg/mL (≈ 134 µM)	–	–	46.8 µg/mL (≈ 138 µM)	> 100 µg/mL	–	–	225 to 226 °C	> 100 µg/mL	31.5%	–	–	–	–
Cc1n[nH]c(O)c1CCP(=O)(O)O [Compound 5a]	11.9%	–	–	–	–	–	–	–	–	220 to 221 °C	> 100 µg/mL	24%	> 100 µg/mL	32.8 µg/mL (≈ 159 µM)	54.1 µg/mL (≈ 262 µM)	68.5 µg/mL (≈ 332 µM)
CC(C)c1onc(O)c1CCP(=O)(O)O [Compound 6d]	17.3%	67.5 µg/mL (≈ 287 µM)	38.2 µg/mL (≈ 162 µM)	0.5 fold	0.9 fold	40.1 µg/mL (≈ 171 µM)	25.7 µg/mL (≈ 109 µM)	1.0 fold	1.5 fold	–	45.7 ± 4.8 µg/mL (≈ 194 µM)	100%	–	–	–	–
CCc1n[nH]c(CC)c1CCP(=O)(O)O [Compound 5f]	32.4%	> 100 µg/mL	> 100 µg/mL	–	–	71.6 µg/mL (≈ 308 µM)	31.4 µg/mL (≈ 135 µM)	–	–	> 250 °C	> 100 µg/mL	37.7%	–	–	–	–
CCc1n[nH]c(O)c1CCP(=O)(O)O [Compound 5b]	12.9%	–	–	–	–	–	–	–	–	217 to 218 °C	> 100 µg/mL	26.5%	> 100 µg/mL	> 100 µg/mL	86.7 µg/mL (≈ 394 µM)	92.2 µg/mL (≈ 419 µM)
Cc1noc(C)c1CC(P(=O)(O)O)P(=O)(O)O [Compound 13g]	7.3%	60.4 µg/mL (≈ 212 µM)	41.5 µg/mL (≈ 146 µM)	–	–	79.8 µg/mL (≈ 280 µM)	32.3 µg/mL (≈ 113 µM)	–	–	> 250 °C	> 100 µg/mL	39.7%	–	–	–	–
CCc1onc(O)c1CC(P(=O)(O)O)P(=O)(O)O [Compound 13b]	27.4%	38.8 µg/mL (≈ 129 µM)	20.2 µg/mL (≈ 67.1 µM)	0.9 fold	1.6 fold	29.9 µg/mL (≈ 99.3 µM)	35.3 µg/mL (≈ 117 µM)	1.3 fold	1.1 fold	–	37.7 ± 2.8 µg/mL (≈ 125 µM)	100%	–	–	–	–
CCCc1n[nH]c(O)c1CCP(=O)(O)O [Compound 5c]	6.1%	> 100 µg/mL	48.2 µg/mL (≈ 206 µM)	–	–	76.3 µg/mL (≈ 326 µM)	10.6 µg/mL (≈ 45.3 µM)	–	–	228 to 229 °C	> 100 µg/mL	43.6%	–	–	–	–
CC(C)c1n[nH]c(O)c1CCP(=O)(O)O [Compound 5d]	17.7%	> 100 µg/mL	96.9 µg/mL (≈ 414 µM)	–	–	32.1 µg/mL (≈ 137 µM)	> 100 µg/mL	–	–	210 to 211 °C	> 100 µg/mL	48.3%	–	–	–	–
CCCc1onc(O)c1CCP(=O)(O)O [Compound 6c]	7.5%	99.7 µg/mL (≈ 424 µM)	33.7 µg/mL (≈ 143 µM)	–	–	65.4 µg/mL (≈ 278 µM)	41.1 µg/mL (≈ 175 µM)	–	–	–	> 100 µg/mL	42%	–	–	–	–
Cc1n[nH]c(O)c1CC(P(=O)(O)O)P(=O)(O)O [Compound 12a]	13.7%	51.3 µg/mL (≈ 179 µM)	87.1 µg/mL (≈ 304 µM)	–	–	> 100 µg/mL	47.7 µg/mL (≈ 167 µM)	–	–	> 250 °C	> 100 µg/mL	47.2%	–	–	–	–
